Experimental data: US12357665B2, “Pharmaceutical compositions and uses thereof in treating muscle atrophy” (Tzung-Yan, priority 2020, dated 2025)

Columns and labels:
Format in all cases: in vivo, mouse (C57BL/6J)
[1] = system: muscle tissues of aging mice fed with sucrose; assay: Sucrose-induced muscle atrophy in aging mice, topical administration: histology and muscle atrophy-associated molecules (Example 1); conditions: once per day day 17-30, ATG-125 60 mg/kg topical, 4-OHT 1 mg/kg intraperitoneal
Method: (§1) Male C57BL/6J (6 and 18 months) mice were fed standard chow and water ad libitum, and housed under conditions of control temperature (26° C.) and illumination (12-hour light/dark cycle). […]
(§2) Muscle tissues were harvested immediately from the mice after they were sacrificed, followed by flash frozen in liquid nitrogen and stored at −80° C. Proteins were extracted from muscle tissues with distilled water containing protease inhibitors, and each protein concentration was determined by protein assay kits. Protein (50 μg) was analyzed on a 10% sodium dodecyl sulfate polyacrylamide gel electrophoresis (SDS-PAGE), and transferred to a polyvinylidene difluoride (PVDF) membrane. […] The optical densities of the bands were quantified using software. […]

[2] = system: mitochondrial biogenesis mediators (SIRT1, PGC1α, NRF1, TFAM, UCP1, UCP2, UCP3); assay: Sucrose-induced aging mice: mitochondrial molecules in muscle tissues, mRNA and protein (Example 3); conditions: once per day day 17-30, ATG-125 60 mg/kg topical, 4-OHT 1 mg/kg intraperitoneal, FIGS. 5 and 6
Method: as §1, §2

[3] = system: mTOR/insulin signaling pathway (IGF1R, IRS1, PI3K, AKT, mTOR, S6K, 4EBP1); assay: Sucrose-induced aging mice: mTOR/insulin signaling pathway in muscle tissues, Western blot (Example 2); conditions: once per day day 17-30, ATG-125 60 mg/kg topical, 4-OHT 1 mg/kg intraperitoneal, FIGS. 4A and 4B
Method: as §1, §2

[4] = system: muscle tissues of sucrose and MPTP-induced aging mice; assay: Sucrose and MPTP-induced muscle atrophy in aging mice, oral administration: histology, atrogin-1 and klotho mRNA (Example 4); conditions: once per day day 17-30, ATG-125 60 mg/kg oral, selegiline 1 mg/kg intraperitoneal, FIG. 7
Method: as §1
Total RNA was isolated from 0.2 g of muscle tissues using RNA extraction kit. For qRT-PCR (real-time reverse transcription-PCR), equal amounts of RNA were retro-transcribed to cDNA using cDNA reverse transcription kit according to the manufacturer's instruction. atrogin-1, klotho, mitochondrial transcription factor A (TFAM), SIRT1, PGC1α, nuclear respiratory factor 1 (NRF1), UCP1, and UCP2 mRNA expressions were evaluated using the SYBR® Green PCR master mix. Relative expression was calculated using the ΔΔCt method with normalization to constitutive genes. […]

[5] = system: mitochondrial biogenesis mediators (SIRT1, PGC1α, NRF1, TFAM, UCP1, UCP2); assay: Sucrose and MPTP-induced aging mice: mitochondrial molecules mRNA in muscle tissues (Example 5); conditions: once per day day 17-30, ATG-125 60 mg/kg oral, selegiline 1 mg/kg intraperitoneal, FIG. 8
Method: as §1
Total RNA was isolated from 0.2 g of muscle tissues using RNA extraction kit. For qRT-PCR (real-time reverse transcription-PCR), equal amounts of RNA were retro-transcribed to cDNA using cDNA reverse transcription kit according to the manufacturer's instruction. atrogin-1, klotho, mitochondrial transcription factor A (TFAM), SIRT1, PGC1α, nuclear respiratory factor 1 (NRF1), UCP1, and UCP2 mRNA expressions were evaluated using the SYBR® Green PCR master mix. Relative expression was calculated using the ΔΔCt method with normalization to constitutive genes.
Mitochondria play an essential role in energy production, redox homeostasis, and the regulation of cell death pathways. […] Thus, whether ATG-125 solution improves the mitochondrial function in the animal having muscle atrophy was evaluated in this example, and the results were respectively depicted in FIG. 8.

| Compound | adverse effect of sucrose on muscle tissues (protein levels of pAMPK, FOXO3a, MuRF1, lipofuscin; mRNA levels of Atrogin-1 and Klotho) ([1]; FIGS. 1 to 3) | levels of adipocytes and degenerated myofibers in muscles ([1]; H&E, FIG. 1) | expression levels of mitochondrial biogenesis mediators (mRNA SIRT1, PGC1α, NRF1, TFAM, UCP1, UCP2; protein SIRT1, PGC1α, UCP1, UCP2, UCP3) in muscle tissues [2] | phosphorylated levels (activations) of mTOR/insulin signaling molecules (pIGF1R, pIRS1, pPI3K, pAKT, pmTOR, pS6K, p4EBP1) [3] | adverse effect of sucrose and MPTP on muscle tissues (mRNA levels of Atrogin-1 and Klotho) [4] | levels of degenerated myofibers in muscles ([4]; H&E) | expression levels of mitochondrial biogenesis mediators (mRNA SIRT1, PGC1α, NRF1, TFAM, UCP1, UCP2) in muscle tissues [5] |
| --- | --- | --- | --- | --- | --- | --- | --- |
| 4-hydroxytamoxifen [4-OHT] | significantly reversed | decreased | increased | enhanced | – | – | – |
| C#CCN(C)[C@H](C)Cc1ccccc1 [selegiline] | – | – | – | – | significantly reversed | decreased | increased |
